# Patent publication US20130183249A1, “Stimulus Sensitive Magnetic Nanocomposite Using Pyrene Polymer, and Contrast Medium Composition Containing the Nanocomposite” (INDUSTRY ACADEMIC COOPERATION FOUNDATION YOUNSEI UNIVERSITY, priority 2010, published 2013)
# Tested on: NIH3T6.7 and MDA-MB-231 cells
# Assay: Cell targeting ability and drug release by fluorescence microscopy
# Conditions: 0.05 mM based on doxorubicin, 30 minutes incubation
# Protocol: For each of 12 wells, a cover glass was put on a bottom, 3×10^5 of each of NIH3T6.7 and MDA-MB-231 cells were dispensed on the glass per well to incubate for 12 hours, and washed with PBS three times. After the washing with PBS, 0.05 mM of a Herceptin-binding target-specific stimuli-sensitive nanocomposite based on doxorubicin, an IgG-binding stimuli-sensitive nanocomposite as a control group, and doxorubicin were each added to the cells, and incubated for 30 minutes. After the cells were washed with PBS, a dye for a cell nucleus (Hoechst dye) was added to the cells, reacted for 10 minutes and washed with PBS three times, and then the cover glass was fixed to a slide glass to observe microscope images.
compound,measurement,value
"COc1cccc2c1C(=O)c1c(O)c3c(c(O)c1C2=O)C[C@@](O)(C(=O)CO)C[C@@H]3O[C@H]1C[C@H](N)[C@H](O)[C@H](C)O1 [Doxorubicin, doxorubicin]",doxorubicin identified in cell nucleus (microscope images),identified from a nucleus of the doxorubicin-treated cell without distinction of cells
